Test results: US11478558B2, “Prostate-specific membrane antigen targeted high-affinity agents for endoradiotherapy of prostate cancer” (The Johns Hopkins University, priority 2017, dated 2022)
Where two headings read alike, the source gives them in different places. One block for each molecule: values may come before it.

Columns and labels:
PSMA(+) PC3 PIP cells = experiment: Cell uptake, cell surface binding and internalization in PSMA(+) PC3 PIP cells; type: cell-based, human
PSMA = PSMA (Homo sapiens (Human), UniProt Q04609); experiment: PSMA binding affinity; settings: Table 6, given as range
PSMA, sequence (Q04609 whole entry): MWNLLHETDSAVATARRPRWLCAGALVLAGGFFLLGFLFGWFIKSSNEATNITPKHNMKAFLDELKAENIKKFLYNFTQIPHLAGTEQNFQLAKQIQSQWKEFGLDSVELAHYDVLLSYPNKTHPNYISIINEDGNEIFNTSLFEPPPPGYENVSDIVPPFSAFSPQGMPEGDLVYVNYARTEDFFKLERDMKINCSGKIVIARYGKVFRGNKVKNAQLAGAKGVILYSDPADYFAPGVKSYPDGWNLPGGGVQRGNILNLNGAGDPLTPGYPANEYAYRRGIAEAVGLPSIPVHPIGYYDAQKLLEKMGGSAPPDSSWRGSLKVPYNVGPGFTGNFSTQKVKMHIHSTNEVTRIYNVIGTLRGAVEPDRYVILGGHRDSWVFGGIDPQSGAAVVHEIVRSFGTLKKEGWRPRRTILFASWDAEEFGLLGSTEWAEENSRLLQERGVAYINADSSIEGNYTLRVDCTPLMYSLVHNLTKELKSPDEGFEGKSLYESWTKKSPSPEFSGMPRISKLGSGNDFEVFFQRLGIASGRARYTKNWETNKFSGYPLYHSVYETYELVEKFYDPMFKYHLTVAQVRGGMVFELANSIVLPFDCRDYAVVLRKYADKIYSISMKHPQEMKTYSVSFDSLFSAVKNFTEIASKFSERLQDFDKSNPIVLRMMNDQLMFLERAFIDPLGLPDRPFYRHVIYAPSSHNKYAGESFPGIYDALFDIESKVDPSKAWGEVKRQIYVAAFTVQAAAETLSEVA

Compound: O=C(O)CC[C@H](NC(=O)N[C@@H](CCCCN(Cc1ccc(Br)cc1)C(=O)CCCCNC(=O)CN1CCN(CC(=O)O)CCN(CC(=O)O)CCN(CC(=O)O)CC1)C(=O)O)C(=O)O [Ligand L1, (14S,18S)-9-(4-Bromobenzyl)-2,8,16-trioxo-1-(4,7,10-tris(carboxymethyl)-1,4,7,10-tetraazacyclododecan-1-yl)-3,9,15,17-tetraazaicosane-14,18,20-tricarboxylic acid]
Specific Cell Surface Binding (PSMA(+) PC3 PIP cells): 36.49 ± 0.50 % IA/10^6 cells | specific internalization (PSMA(+) PC3 PIP cells): 23.68 ± 0.16 % IA/10^6 cells

Ki (PSMA): 0.14 to 0.39 nM
Compound: O=C(O)CC[C@H](NC(=O)N[C@@H](CCCCN(Cc1ccc(I)cc1)C(=O)CCCCCNC(=O)c1ccc(CNC(=O)CN2CCN(CC(=O)O)CCN(CC(=O)O)CCN(CC(=O)O)CC2)cc1)C(=O)O)C(=O)O [Ligand L4, (14S,18S)-9-(4-Iodobenzyl)-1,8,16-trioxo-1-(4-((2-(4,7,10-tris(carboxymethyl)-1,4,7,10-tetraazacyclododecan-1-yl)acetamido)methyl)phenyl)-2,9,15,17-tetraazaicosane-14,18,20-tricarboxylic acid]

Compound: O=C(O)CC[C@H](NC(=O)N[C@@H](CCCCNC(=O)CCCCCCC(=O)NCCCC[C@H](NC(=O)[C@@H](CCCCNC(=O)CCCc1ccc(I)cc1)NC(=O)CN1CCN(CC(=O)O)CCN(CC(=O)O)CCN(CC(=O)O)CC1)C(=O)O)C(=O)O)C(=O)O [Ligand L14, (3S,7S,26S,29R)-38-(4-iodophenyl)-5,13,20,28,35-pentaoxo-29-(2-(4,7,10-tris(carboxymethyl)-1,4,7,10-tetraazacyclododecan-1-yl)acetamido)-4,6,12,21,27,34-hexaazaoctatriacontane-1,3,7,26-tetracarboxylic acid]
Specific Cell Surface Binding (PSMA(+) PC3 PIP cells): 53.0 ± 1.3 % IA/10^6 cells

Compound: O=C(O)CC[C@H](NC(=O)N[C@@H](CCCCNC(=O)CCCCCCC(=O)NCCCC[C@@H](NC(=O)[C@@H](Cc1ccccc1)NC(=O)[C@@H](Cc1ccc(O)c(I)c1)NC(=O)CCC(C(=O)O)N1CCN(CC(=O)O)CCN(CC(=O)O)CCN(CC(=O)O)CC1)C(=O)O)C(=O)O)C(=O)O (some centres unmarked) [PSMA I&T, reference compound]
Specific Cell Surface Binding (PSMA(+) PC3 PIP cells; Table 6): 64.5 ± 2.3 % IA/10^6 cells | specific internalization (PSMA(+) PC3 PIP cells; Table 6): 21.1 ± 0.7 % IA/10^6 cells

Compound: O=C(O)CC[C@H](NC(=O)N[C@@H](CCCCNC(=O)[C@H](Cc1ccc2ccccc2c1)NC(=O)[C@H]1CC[C@H](CNC(=O)CN2CCN(CC(=O)O)CCN(CC(=O)O)CCN(CC(=O)O)CC2)CC1)C(=O)O)C(=O)O [PSMA-617, reference compound]
Specific Cell Surface Binding (PSMA(+) PC3 PIP cells): 44.6 ± 1.0 % IA/10^6 cells | specific internalization (PSMA(+) PC3 PIP cells): 21.1 ± 0.9 % IA/10^6 cells
